Where two headings read alike, the source gives them in different places.
Tests used:
Assay in all cases: TGFα-shedding assay-based GPCR screening with chimeric Gα subunit proteins
Assay type in all cases: cell-based
348 GPCRs [1] = target: T1, 348 GPCRs (Homo sapiens, UniProt P49019); conditions: 10µM, Favipiravir 100μM
T1 construct: expressed in transfected cells; host or cells: HEK293A

348 GPCRs [2] = target: T2, 348 GPCRs (Homo sapiens, UniProt O43194)
T2 construct: expressed in transfected cells; host or cells: HEK293A
T2 sequence (O43194 1-453): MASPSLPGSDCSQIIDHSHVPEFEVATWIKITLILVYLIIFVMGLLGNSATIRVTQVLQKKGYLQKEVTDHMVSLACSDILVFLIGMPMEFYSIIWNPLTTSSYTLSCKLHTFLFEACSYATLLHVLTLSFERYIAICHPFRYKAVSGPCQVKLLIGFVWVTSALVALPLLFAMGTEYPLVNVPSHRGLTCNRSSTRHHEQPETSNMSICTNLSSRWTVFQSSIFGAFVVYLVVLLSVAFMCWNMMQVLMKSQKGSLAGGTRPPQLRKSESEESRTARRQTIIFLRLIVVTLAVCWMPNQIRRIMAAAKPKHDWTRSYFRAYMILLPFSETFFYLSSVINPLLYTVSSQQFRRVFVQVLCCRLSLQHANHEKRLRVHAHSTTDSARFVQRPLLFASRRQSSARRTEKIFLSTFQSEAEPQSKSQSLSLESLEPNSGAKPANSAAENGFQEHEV

348 GPCRs [3] = target: T3, 348 GPCRs (Homo sapiens, UniProt P28222); conditions: 10µM, Favipiravir 100μM
T3 construct: expressed in transfected cells; host or cells: HEK293A

348 GPCRs [4] = target: T4, 348 GPCRs (Homo sapiens, UniProt Q13585)
T4 construct: expressed in transfected cells; host or cells: HEK293A

348 GPCRs [5] = target: T5, 348 GPCRs (Homo sapiens, UniProt P29274); conditions: ADORA2A (adenosine A2a receptor); 10µM, Favipiravir 100μM
T5 construct: expressed in transfected cells; host or cells: HEK293A

348 GPCRs [6] = target: T6, 348 GPCRs (Homo sapiens, UniProt P47211); conditions: 10µM, Favipiravir 100μM
T6 sequence (P47211 1-349): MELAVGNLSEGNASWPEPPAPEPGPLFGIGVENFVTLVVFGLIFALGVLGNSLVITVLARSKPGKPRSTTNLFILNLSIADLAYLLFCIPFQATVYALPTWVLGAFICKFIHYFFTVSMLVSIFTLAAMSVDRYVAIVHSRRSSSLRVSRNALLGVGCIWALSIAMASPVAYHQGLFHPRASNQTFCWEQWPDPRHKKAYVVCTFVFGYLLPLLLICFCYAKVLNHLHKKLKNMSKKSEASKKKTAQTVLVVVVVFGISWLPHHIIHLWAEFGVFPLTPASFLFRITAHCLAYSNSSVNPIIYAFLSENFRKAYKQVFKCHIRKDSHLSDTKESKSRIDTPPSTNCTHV

348 GPCRs [7] = target: T7, 348 GPCRs (Homo sapiens, UniProt P21730); conditions: 10µM, Favipiravir 100μM
T7 construct: expressed in transfected cells; host or cells: HEK293A
T7 sequence (P21730 1-350): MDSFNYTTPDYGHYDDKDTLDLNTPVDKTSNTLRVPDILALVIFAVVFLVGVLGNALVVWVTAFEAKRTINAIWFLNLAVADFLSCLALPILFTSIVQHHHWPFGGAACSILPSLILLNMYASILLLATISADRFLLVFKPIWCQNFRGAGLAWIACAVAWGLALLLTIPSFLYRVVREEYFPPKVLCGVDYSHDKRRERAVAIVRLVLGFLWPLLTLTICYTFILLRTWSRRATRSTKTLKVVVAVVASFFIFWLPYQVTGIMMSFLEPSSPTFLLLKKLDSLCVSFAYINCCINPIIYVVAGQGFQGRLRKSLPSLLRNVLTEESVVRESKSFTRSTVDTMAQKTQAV

348 GPCRs [8] = target: T8, 348 GPCRs (Homo sapiens, UniProt Q9HBX9); conditions: RXFP1 (relaxin/insulin-like family peptide receptor 1); 10µM, Favipiravir 100μM
T8 construct: expressed in transfected cells; host or cells: HEK293A
T8 sequence (Q9HBX9 1-757): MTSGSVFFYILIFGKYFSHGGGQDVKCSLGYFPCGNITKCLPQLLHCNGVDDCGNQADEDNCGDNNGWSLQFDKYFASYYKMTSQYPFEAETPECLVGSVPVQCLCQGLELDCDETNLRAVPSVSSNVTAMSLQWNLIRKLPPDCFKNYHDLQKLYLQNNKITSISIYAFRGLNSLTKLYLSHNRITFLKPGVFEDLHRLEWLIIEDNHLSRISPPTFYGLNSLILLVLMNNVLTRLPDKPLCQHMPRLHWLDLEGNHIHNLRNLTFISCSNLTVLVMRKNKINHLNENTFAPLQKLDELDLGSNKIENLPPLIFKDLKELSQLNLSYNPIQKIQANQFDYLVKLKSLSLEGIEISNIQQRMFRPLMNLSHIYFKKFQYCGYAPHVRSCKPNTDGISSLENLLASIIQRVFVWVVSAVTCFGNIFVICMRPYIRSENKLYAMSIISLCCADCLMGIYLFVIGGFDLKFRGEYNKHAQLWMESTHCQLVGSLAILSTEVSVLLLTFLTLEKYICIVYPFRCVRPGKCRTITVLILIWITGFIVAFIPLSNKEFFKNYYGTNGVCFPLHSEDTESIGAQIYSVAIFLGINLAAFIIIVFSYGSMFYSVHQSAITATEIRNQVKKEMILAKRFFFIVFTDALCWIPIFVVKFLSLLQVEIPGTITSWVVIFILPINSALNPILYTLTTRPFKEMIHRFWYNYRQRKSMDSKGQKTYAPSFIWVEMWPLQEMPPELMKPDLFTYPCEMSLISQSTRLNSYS

[9] = HCA3 (hydroxycarboxylic Acid Receptor 3), read-out: % GPCR activation compared to TPA
[10] = GPCR GPR39 (G Protein-Coupled Receptor 39), read-out: % GPCR activation compared to TPA
[11] = 5-HT1B (5-hydroxytryptamine receptor 1B), read-out: % GPCR activation compared to TPA
[12] = GPCR GPR50 (G Protein-Coupled Receptor 50), read-out: % GPCR activation compared to TPA
[13] = GALR1 (galanin receptor 1), read-out: % GPCR activation compared to TPA
[14] = C5AR1 (complement C5a receptor 1), read-out: % GPCR activation compared to TPA
[15] = read-out: % GPCR activation compared to TPA, HCA3 (hydroxycarboxylic Acid Receptor 3)
[16] = read-out: % GPCR activation compared to TPA, GPCR GPR39 (G Protein-Coupled Receptor 39)
[17] = read-out: % GPCR activation compared to TPA, 5-HT1B (5-hydroxytryptamine receptor 1B)
[18] = read-out: % GPCR activation compared to TPA, GPCR GPR50 (G Protein-Coupled Receptor 50)
[19] = read-out: % GPCR activation compared to TPA, GALR1 (galanin receptor 1)
[20] = read-out: % GPCR activation compared to TPA, C5AR1 (complement C5a receptor 1)

T1 sequence (P49019 whole entry): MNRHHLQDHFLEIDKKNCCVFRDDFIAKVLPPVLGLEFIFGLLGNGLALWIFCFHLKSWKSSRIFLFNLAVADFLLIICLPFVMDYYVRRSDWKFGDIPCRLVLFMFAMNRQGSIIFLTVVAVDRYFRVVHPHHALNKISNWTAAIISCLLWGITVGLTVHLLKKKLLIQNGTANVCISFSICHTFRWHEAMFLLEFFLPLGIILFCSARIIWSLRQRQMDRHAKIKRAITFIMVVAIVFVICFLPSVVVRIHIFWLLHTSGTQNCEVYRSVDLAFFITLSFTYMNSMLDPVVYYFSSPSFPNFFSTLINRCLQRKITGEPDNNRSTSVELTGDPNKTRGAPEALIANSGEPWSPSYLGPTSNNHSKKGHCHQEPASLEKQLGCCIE
T4 sequence (Q13585 whole entry): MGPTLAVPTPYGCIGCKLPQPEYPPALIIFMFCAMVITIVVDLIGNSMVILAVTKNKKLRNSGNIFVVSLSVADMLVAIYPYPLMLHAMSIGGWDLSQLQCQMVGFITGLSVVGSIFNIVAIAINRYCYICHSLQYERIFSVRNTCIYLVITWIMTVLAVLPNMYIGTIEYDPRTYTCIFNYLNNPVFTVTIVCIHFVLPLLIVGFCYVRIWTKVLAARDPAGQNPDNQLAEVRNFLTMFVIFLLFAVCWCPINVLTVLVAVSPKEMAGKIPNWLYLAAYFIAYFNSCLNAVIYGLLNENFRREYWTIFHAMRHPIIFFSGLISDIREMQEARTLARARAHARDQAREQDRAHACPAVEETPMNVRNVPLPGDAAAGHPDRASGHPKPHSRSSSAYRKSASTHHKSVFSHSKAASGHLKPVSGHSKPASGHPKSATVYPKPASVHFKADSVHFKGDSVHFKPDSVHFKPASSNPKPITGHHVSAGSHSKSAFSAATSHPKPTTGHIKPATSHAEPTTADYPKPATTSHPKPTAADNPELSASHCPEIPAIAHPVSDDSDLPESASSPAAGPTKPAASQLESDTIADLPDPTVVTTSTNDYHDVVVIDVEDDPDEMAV
T3 sequence (P28222 whole entry): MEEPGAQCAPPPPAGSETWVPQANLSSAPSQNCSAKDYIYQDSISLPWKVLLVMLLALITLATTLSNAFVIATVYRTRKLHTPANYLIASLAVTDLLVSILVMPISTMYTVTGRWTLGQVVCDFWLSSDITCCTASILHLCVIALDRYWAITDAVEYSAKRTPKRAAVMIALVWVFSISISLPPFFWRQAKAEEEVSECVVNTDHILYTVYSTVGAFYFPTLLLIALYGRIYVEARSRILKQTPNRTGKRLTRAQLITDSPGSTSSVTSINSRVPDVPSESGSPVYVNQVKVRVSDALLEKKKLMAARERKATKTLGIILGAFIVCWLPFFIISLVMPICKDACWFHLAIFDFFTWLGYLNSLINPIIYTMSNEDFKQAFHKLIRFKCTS
T5 sequence (P29274 whole entry): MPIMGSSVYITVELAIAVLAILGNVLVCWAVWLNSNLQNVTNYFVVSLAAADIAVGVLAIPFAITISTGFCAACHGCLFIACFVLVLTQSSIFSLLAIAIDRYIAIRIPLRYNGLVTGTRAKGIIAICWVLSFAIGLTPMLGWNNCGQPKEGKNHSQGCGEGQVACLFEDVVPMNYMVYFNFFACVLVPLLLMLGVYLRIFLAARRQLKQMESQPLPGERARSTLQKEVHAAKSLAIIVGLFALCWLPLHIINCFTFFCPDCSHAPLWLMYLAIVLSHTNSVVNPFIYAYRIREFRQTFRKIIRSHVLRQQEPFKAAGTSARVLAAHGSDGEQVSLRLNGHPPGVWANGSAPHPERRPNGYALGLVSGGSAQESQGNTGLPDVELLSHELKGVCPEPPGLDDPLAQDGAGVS

Row | activation at 100 µM (348 GPCRs [1]; [9]) [%] | activation at 10 µM (348 GPCRs [2]; [10]) [%] | activation at 100 µM (348 GPCRs [3]; [11]) [%] | activation at 10 µM (348 GPCRs [4]; [12]) [%] | % GPCR activation compared to TPA (348 GPCRs [5]) [%] | activation at 100 µM (348 GPCRs [6]; [13]) [%] | activation at 10 µM (348 GPCRs [7]; [14]) [%] | % GPCR activation compared to TPA (348 GPCRs [8]) [%] | activation at 100 µM (348 GPCRs [2]; GPCR GPR39 (G Protein-Coupled Receptor 39), 100μM, read-out: % GPCR activation compared to TPA) [%] | activation at 100 µM (348 GPCRs [4]; GPCR GPR50 (G Protein-Coupled Receptor 50), 100μM, read-out: % GPCR activation compared to TPA) [%] | SMILES | activation at 100 µM (348 GPCRs [1]; [15]) [%] | activation at 10 µM (348 GPCRs [2]; [16]) [%] | activation at 100 µM (348 GPCRs [3]; [17]) [%] | activation at 10 µM (348 GPCRs [4]; [18]) [%] | activation at 100 µM (348 GPCRs [6]; [19]) [%] | activation at 10 µM (348 GPCRs [7]; [20]) [%]
1 | -0.178 | -9.02 | -3.77 | -1.05 | 1.631 | 0.832 | -2.17 | -1.093 |  |  | N#C[C@@]1(c2ccc3c(N)ncnn23)O[C@H](CO)[C@@H](O)[C@H]1O [GS441524] |  |  |  |  |  | 
2 | 0.282 |  | -3.2 |  | 2.3424 | 7.08 | -6.83 | 0.2738 | -6.36 | -0.692 | NC(=O)c1nc(F)cnc1O [favipiravir, 6-fluoro-3-hydroxy-2-pyrazinecarboxamide] |  |  |  |  |  | 
3 | -2.64 | -11.5 | -0.835 | -1.45 | -1.952 | 1.08 | -2.78 | -0.9572 |  |  | CC(C)C(=O)OC[C@H]1O[C@@H](n2ccc(NO)nc2=O)[C@H](O)[C@@H]1O [molnupiravir] |  |  |  |  |  | 

Row | SMILES | activation at 100 µM (348 GPCRs [1]; [9]) [%] | activation at 10 µM (348 GPCRs [2]; [10]) [%] | activation at 100 µM (348 GPCRs [3]; [11]) [%] | activation at 10 µM (348 GPCRs [4]; [12]) [%] | % GPCR activation compared to TPA (348 GPCRs [5]) [%] | activation at 100 µM (348 GPCRs [6]; [13]) [%] | activation at 10 µM (348 GPCRs [7]; [14]) [%] | % GPCR activation compared to TPA (348 GPCRs [8]) [%] | activation at 100 µM (348 GPCRs [2]; GPCR GPR39 (G Protein-Coupled Receptor 39), 100μM, read-out: % GPCR activation compared to TPA) [%] | activation at 100 µM (348 GPCRs [4]; GPCR GPR50 (G Protein-Coupled Receptor 50), 100μM, read-out: % GPCR activation compared to TPA) [%] | activation at 100 µM (348 GPCRs [1]; [15]) [%] | activation at 10 µM (348 GPCRs [2]; [16]) [%] | activation at 100 µM (348 GPCRs [3]; [17]) [%] | activation at 10 µM (348 GPCRs [4]; [18]) [%] | activation at 100 µM (348 GPCRs [6]; [19]) [%] | activation at 10 µM (348 GPCRs [7]; [20]) [%]
4 | CCC(CC)COC(=O)[C@H](C)N[P@](=O)(OC[C@H]1O[C@@](C#N)(c2ccc3c(N)ncnn23)[C@H](O)[C@@H]1O)Oc1ccccc1 [remdesivir] |  |  |  |  | 3.955 |  |  | -0.5639 |  |  | -1.75 | 2.25 | -0.255 | -1.37 | 6.53 | -1.43
5 | CC(C)OC(=O)[C@H](C)N[P@](=O)(OC[C@H]1O[C@@H](n2ccc(=O)[nH]c2=O)[C@](C)(F)[C@@H]1O)Oc1ccccc1 [sofosbuvir] |  |  |  |  | -2.149 |  |  | 0.4557 |  |  | -2.7 | -4.93 | -1 | -0.301 | -0.0144 | -2.89

— article PMC10175918 (Communications Biology, 2023)
